Laboratory results published in patent US20210324359A1, “USE OF GRAM-NEGATIVE LYSIN-ANTIMICROBIAL PEPTIDE (AMP) POLYPEPTIDE CONSTRUCTS IN TREATING ENDOCARDITIS” (priority 2020, published 2021).
Where two headings read alike, the source gives them in different places.

What was measured:
P. aeruginosa (PA20) = test: Rabbit infective endocarditis model (Tables 28-32, FIGS. 5-8); assay type: in vivo, Pseudomonas aeruginosa in rabbits; conditions: Meropenem 5 mg/kg
Description: Initially, a polyethylene catheter was placed into the rabbits' right ventricle and secured. 48 hours after catheter placement, rabbits were infected intravenously with P. aeruginosa (PA20) (6×10^9 CFU/mL). Treatment commenced 24 hours post-infection.
Data were analyzed using the Kruskal-Wallis method for multiple comparison and then adjusted with a false discovery rate approach (Benjamini-Hochberg method), using StatsDirect Software. A p-value of <0.05 was considered statistically significant.

[1] = system: P. aeruginosa PA20 recovered from rabbit lung homogenates; assay type: cell-based, Pseudomonas aeruginosa; conditions: n=48
[2] = system: P. aeruginosa isolate CFS 1558 (PA20); assay type: in vivo
Description: A rabbit pulmonary model was used to assess the efficacy of the GN370 lysin alone and in combination with an antibiotic (meropenem). Initially, rabbits were infected intratracheally with P. aeruginosa isolate CFS 1558 (PA20) (3×10^9 CFU). Treatment commenced 6 hours post-infection.

[3] = system: 15 P. aeruginosa isolates; test: MIC of GN370 in dog, human, rabbit and rat serum and CAAT; meropenem in CAMHB (Table 33); assay type: cell-based, Pseudomonas aeruginosa; conditions: Pseudomonas aeruginosa, CAMHB

C[C@@H](O)[C@H]1C(=O)N2C(C(=O)O)=C(S[C@@H]3CN[C@H](C(=O)N(C)C)C3)[C@H](C)[C@H]12 [Meropenem, meropenem, reference compound]
Bacterial burden, Mean (P. aeruginosa (PA20); cardiac vegetation): 7.22 log10 CFU/g
Mean log10 CFU change v. 24 hr control (P. aeruginosa (PA20); cardiac vegetation): −0.68 log10 CFU
Mean log10 CFU change v. vehicle (P. aeruginosa (PA20); cardiac vegetation): −0.13 log10 CFU
Bacterial burden, Mean (P. aeruginosa (PA20); kidney tissue): 4.64 log10 CFU/g
Mean log10 CFU change v. 24 hr control (P. aeruginosa (PA20); kidney tissue): −1.32 log10 CFU
Mean log10 CFU change v. vehicle (P. aeruginosa (PA20); kidney tissue): −0.55 log10 CFU
Bacterial burden, Mean (P. aeruginosa (PA20); lung tissue): 3.75 log10 CFU/g
Mean log10 CFU change v. 24 hr control (P. aeruginosa (PA20); lung tissue): −1.41 log10 CFU
Mean log10 CFU change v. vehicle (P. aeruginosa (PA20); lung tissue): −1.25 log10 CFU
Bacterial burden, Mean (P. aeruginosa (PA20); spleen tissue): 3.95 log10 CFU/g
Mean log10 CFU change v. 24 hr control (P. aeruginosa (PA20); spleen tissue): −1.00 log10 CFU
Mean log10 CFU change v. vehicle (P. aeruginosa (PA20); spleen tissue): −1.62 log10 CFU
number of isolates with Meropenem MIC […] μg/mL ([1]; isolates from GN370 (3 mg/kg) + Meropenem (20 mg/kg) group): 48
number of isolates with Meropenem MIC […] μg/mL ([1]; isolates from GN370 (3 mg/kg) group): 48
number of isolates with Meropenem MIC […] μg/mL ([1]; isolates from GN370 (10 mg/kg) + Meropenem (20 mg/kg) group): 48
number of isolates with Meropenem MIC […] μg/mL ([1]; isolates from GN370 (10 mg/kg) group): 48
number of isolates with Meropenem MIC […] μg/mL ([1]; isolates from GN370 (30 mg/kg) + Meropenem (20 mg/kg) group): 48
number of isolates with Meropenem MIC […] μg/mL ([1]; isolates from GN370 (30 mg/kg) group): 48
number of isolates with Meropenem MIC […] μg/mL ([1]; isolates from Meropenem (20 mg/kg) group): 48
number of isolates with Meropenem MIC […] μg/mL ([1]; isolates from Pre-treatment control group): 48
number of isolates with Meropenem MIC […] μg/mL ([1]; isolates from Vehicle control group): 48
decrease of mean bacterial density in lungs ([2]; agent alone, compared to the starting CFU and the vehicle control group): about 2 log10 CFU/g
Bacterial burden, Kidneys ([2]; meropenem 20 mg/kg): 3.92 ± 0.63 log10 CFU/g
Bacterial burden, Lung 1 ([2]; meropenem 20 mg/kg): 5.80 ± 0.88 log10 CFU/g
Bacterial burden, Lung 2 ([2]; meropenem 20 mg/kg): 5.98 ± 1.14 log10 CFU/g
Bacterial burden, Spleen ([2]; meropenem 20 mg/kg): 3.62 ± 0.21 log10 CFU/g
Log10 CFU/g of vegetation ([2]; rabbit lung, Meropenem 20 mg/kg): 6.12 ± 0.89 Log10 CFU/g
MIC ([3]; ATCC25668, read-out: MIC Meropenem, strain ATCC 25668): 2 µg/mL
MIC ([3]; ATCC27853, read-out: MIC Meropenem, strain ATCC 27853): 0.5 µg/mL
MIC ([3]; PA1, read-out: MIC Meropenem, strain PA1): 32 µg/mL
MIC ([3]; read-out: MIC Meropenem, strain AR0231): 128 µg/mL
MIC ([3]; read-out: MIC Meropenem, strain AR0241): > 256 µg/mL
MIC ([3]; read-out: MIC Meropenem, strain AR0246): 32 µg/mL
MIC ([3]; read-out: MIC Meropenem, strain PA2): 16 µg/mL
MIC ([3]; read-out: MIC Meropenem, strain PA3): 8 µg/mL
MIC ([3]; read-out: MIC Meropenem, strain PA19): 32 µg/mL
MIC ([3]; read-out: MIC Meropenem, strain PA20): 32 µg/mL
MIC ([3]; read-out: MIC Meropenem, strain PA22): 16 µg/mL
MIC ([3]; read-out: MIC Meropenem, strain PA23): 16 µg/mL
MIC ([3]; read-out: MIC Meropenem, strain PA24): > 32 µg/mL
MIC ([3]; read-out: MIC Meropenem, strain PA27): 1 µg/mL
MIC ([3]; read-out: MIC Meropenem, strain PA453): 64 µg/mL
